Experimental data taken from PubChem BioAssay AID256 (DTP/NCI, 2004).
Several values for one entry are separate records, joined by “and”; a condition that tells them apart may be missing. Identical values can stand only once. Toxic doses and inconclusive results are not listed.

System: CD2F1 mice, L1210 leukemia ip, survival T/C
Experiment: NCI In Vivo Anticancer Drug Screen. Data for tumor model L1210 Leukemia (intraperitoneal) in CD2F1 (CDF1) mice
Conditions: higher = longer survival
Procedure, shortened: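 Antitumor effect is scored in animals hosting a serially transplanted tumor. Values compare compound-dosed animals against vehicle-only controls as a simple quotient.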

[1] = endpoint: mean survival time, dose: 100.0 mg/kg/injection, schedule: Q04DX003 (ip), vehicle: saline with Tween-80
[2] = endpoint: mean survival time, dose: 200.0 mg/kg/injection, schedule: Q04DX003 (ip), vehicle: saline with Tween-80
[3] = endpoint: mean survival time, dose: 400.0 mg/kg/injection, schedule: Q04DX003 (ip), vehicle: saline with Tween-80
[4] = endpoint: mean survival time, dose: 50.0 mg/kg/injection, schedule: Q01DX009 (ip), vehicle: saline
[5] = endpoint: mean survival time, dose: 100.0 mg/kg/injection, schedule: Q01DX009 (ip), vehicle: saline with Tween-80
[6] = endpoint: mean survival time, dose: 200.0 mg/kg/injection, schedule: Q01DX009 (ip), vehicle: saline with Tween-80
[7] = endpoint: mean survival time, dose: 400.0 mg/kg/injection, schedule: Q01DX009 (ip), vehicle: saline with Tween-80

Cc1nc2[nH]c(=S)[nH]c(=O)c2nc1C
T/C [1]: 97 % of control
T/C [2]: 90 % of control
T/C [3]: 90 % of control

CSc1nc(NC2OCC(O)C(O)C2O)cc(=O)[nH]1 (centres undefined)
T/C (endpoint: median survival time, dose: 12.5 mg/kg/injection, schedule: Q01DX005 (ip), vehicle: saline): 102 % of control
T/C (endpoint: median survival time, dose: 25.0 mg/kg/injection, schedule: Q01DX005 (ip), vehicle: saline): 98 % of control
T/C (endpoint: median survival time, dose: 50.0 mg/kg/injection, schedule: Q01DX005 (ip), vehicle: saline): 100 % of control
T/C (endpoint: median survival time, dose: 100.0 mg/kg/injection, schedule: Q01DX005 (ip), vehicle: saline): 98 % of control
T/C (endpoint: median survival time, dose: 200.0 mg/kg/injection, schedule: Q01DX005 (ip), vehicle: saline): 100 % of control

c1ccc2c(CC[n+]3cccc(C4OCCO4)c3)c[nH]c2c1
T/C (endpoint: mean survival time, dose: 12.5 mg/kg/injection, schedule: Q01DX009 (ip), vehicle: saline): 100 % of control
T/C (endpoint: mean survival time, dose: 12.5 mg/kg/injection, schedule: Q04DX003 (ip), vehicle: saline): 92 % of control
T/C (endpoint: mean survival time, dose: 25.0 mg/kg/injection, schedule: Q01DX009 (ip), vehicle: saline): 105 % of control
T/C (endpoint: mean survival time, dose: 25.0 mg/kg/injection, schedule: Q04DX003 (ip), vehicle: saline): 96 % of control
T/C [4]: 100 % of control
T/C (endpoint: mean survival time, dose: 50.0 mg/kg/injection, schedule: Q04DX003 (ip), vehicle: saline): 89 % of control

O=C(CNC1=NCCN1)Nc1ccc(NC(=O)c2ccc(C(=O)Nc3ccc(NC(=O)CNC4=NCCN4)cc3)cc2)cc1
T/C (endpoint: mean survival time, dose: 12.0 mg/kg/injection, schedule: Q01DX Z (ip), vehicle: carboxymethylcellulose (CMC)): 102 % of control
T/C (endpoint: mean survival time, dose: 14.0 mg/kg/injection, schedule: Q01DX Z (ip), vehicle: carboxymethylcellulose (CMC)): 106 % of control
T/C (endpoint: mean survival time, dose: 16.0 mg/kg/injection, schedule: Q01DX Z (ip), vehicle: carboxymethylcellulose (CMC)): 102 % of control
T/C (endpoint: mean survival time, dose: 18.0 mg/kg/injection, schedule: Q01DX Z (ip), vehicle: carboxymethylcellulose (CMC)): 106 % of control

C=CCNC(=O)OCC
T/C [5]: 100 % of control
T/C [6]: 98 % of control

O=NN(CCOS(=O)(=O)c1ccc([N+](=O)[O-])cc1)C(=O)NC1CCCCC1
T/C (endpoint: mean survival time, dose: 100.0 mg/kg/injection, schedule: Q01DX001 (ip), vehicle: other): 106 % of control
T/C (endpoint: mean survival time, dose: 200.0 mg/kg/injection, schedule: Q01DX001 (ip), vehicle: other): 153 % of control
T/C (endpoint: mean survival time, dose: 400.0 mg/kg/injection, schedule: Q01DX001 (ip), vehicle: other): 472 % of control

C=CC1(C)CCN=C(CCN2CCCCC2)O1 (centres undefined)
T/C (endpoint: mean survival time, dose: 100.0 mg/kg/injection, schedule: Q01DX001 (ip), vehicle: saline sonified): 97 % of control
T/C (endpoint: mean survival time, dose: 200.0 mg/kg/injection, schedule: Q01DX001 (ip), vehicle: saline sonified): 100 % of control

CC(=O)CC(C)(C)O
T/C [5]: 95 % of control
T/C (endpoint: mean survival time, dose: 100.0 mg/kg/injection, schedule: Q04DX003 (ip), vehicle: saline sonified): 102 % of control
T/C [6]: 96 % of control
T/C (endpoint: mean survival time, dose: 200.0 mg/kg/injection, schedule: Q04DX003 (ip), vehicle: saline sonified): 100 % of control
T/C [7]: 95 % of control
T/C (endpoint: mean survival time, dose: 400.0 mg/kg/injection, schedule: Q04DX003 (ip), vehicle: saline sonified): 97 % of control

CC(C)(C)NC(=O)C1C2CCC(C2)C1C(=O)NC(C)(C)C (centres undefined)
T/C [1]: 98 % of control
T/C [2]: 102 % of control
T/C [3]: 98 % of control

CC(C)C1NC(=O)C2CCCN2C1=O (centres undefined)
T/C (endpoint: mean survival time, dose: 100.0 mg/kg/injection, schedule: Q01DX009 (ip), vehicle: saline sonified): 98 % of control
T/C (endpoint: mean survival time, dose: 200.0 mg/kg/injection, schedule: Q01DX009 (ip), vehicle: saline sonified): 93 % of control
T/C (endpoint: mean survival time, dose: 400.0 mg/kg/injection, schedule: Q01DX009 (ip), vehicle: saline sonified): 96 % of control

CC(/C=N/N(C)C)=N/[N+](C)(C)C
T/C [4]: 101 % of control
T/C (endpoint: mean survival time, dose: 100.0 mg/kg/injection, schedule: Q01DX009 (ip), vehicle: saline): 101 % of control

Nc1nc(N)nc(Nc2ccc(Sc3ccc(Nc4nc(N)nc(N)n4)cc3)cc2)n1
T/C (endpoint: mean survival time, dose: 180.0 mg/kg/injection, schedule: Q01DX Z (ip), vehicle: saline): 103 % of control

CC1(C)N=C(N)N=C(N)N1c1ccc(C(C#N)CCCc2ccccc2)cc1 (centres undefined)
T/C (endpoint: mean survival time, dose: 25.0 mg/kg/injection, schedule: Q01DX009 (ip), vehicle: Klucel (hydroxypropylcellulose) (HPC)): 97 % of control
T/C (endpoint: mean survival time, dose: 50.0 mg/kg/injection, schedule: Q01DX009 (ip), vehicle: Klucel (hydroxypropylcellulose) (HPC)): 101 % of control
T/C (endpoint: mean survival time, dose: 100.0 mg/kg/injection, schedule: Q01DX009 (ip), vehicle: Klucel (hydroxypropylcellulose) (HPC)): 91 % of control

CCOC(=O)c1cnc(SCc2ccccc2)nc1Nc1ccccc1
T/C (endpoint: mean survival time, dose: 100.0 mg/kg/injection, schedule: Q01DX001 (ip), vehicle: saline with Tween-80): 93 % of control
T/C (endpoint: mean survival time, dose: 200.0 mg/kg/injection, schedule: Q01DX001 (ip), vehicle: saline with Tween-80): 88 % of control
T/C (endpoint: mean survival time, dose: 400.0 mg/kg/injection, schedule: Q01DX001 (ip), vehicle: saline with Tween-80): 88 % of control

c1ccc(NN=C(c2ccccc2)c2ccccc2)cc1
T/C [1]: 95 % of control
T/C [2]: 95 % of control
T/C [3]: 98 % of control

COc1ccccc1OCC1CO1 (centres undefined)
T/C (endpoint: mean survival time, dose: 100.0 mg/kg/injection, schedule: Q01DX001 (ip), vehicle: saline): 101 % of control
T/C (endpoint: mean survival time, dose: 200.0 mg/kg/injection, schedule: Q01DX001 (ip), vehicle: saline): 102 % of control
T/C (endpoint: mean survival time, dose: 400.0 mg/kg/injection, schedule: Q01DX001 (ip), vehicle: saline): 102 % of control

Cc1ccc(/C=N\N=C\c2ccc(C)cc2)cc1
T/C [1]: 90 % of control
T/C [3]: 95 % of control

COc1ccc2c(c1)CCC1=C2CCC2(C)C(=O)NC(=O)N12 (centres undefined)
T/C [1]: 98 % of control
T/C [2]: 96 % of control
T/C [3]: 98 % of control

O=C(Nc1ccc(S(=O)(=O)N2CCCCC2)cc1)Oc1ccc([N+](=O)[O-])cc1
T/C (endpoint: mean survival time, dose: 5.0 mg/kg/injection, schedule: Q01DX001 (ip), vehicle: other): 97 % of control
T/C (endpoint: mean survival time, dose: 10.0 mg/kg/injection, schedule: Q01DX001 (ip), vehicle: other): 108 % of control
T/C (endpoint: mean survival time, dose: 20.0 mg/kg/injection, schedule: Q01DX001 (ip), vehicle: other): 100 % of control
T/C (endpoint: mean survival time, dose: 40.0 mg/kg/injection, schedule: Q01DX001 (ip), vehicle: other): 100 % of control
T/C (endpoint: mean survival time, dose: 80.0 mg/kg/injection, schedule: Q01DX001 (ip), vehicle: other): 96 % of control

c1coc(CNc2ncnc3c2ncn3Cc2ccco2)c1
T/C (endpoint: mean survival time, dose: 6.25 mg/kg/injection, schedule: Q01DX005 (ip), vehicle: other): 96 % of control
T/C (endpoint: mean survival time, dose: 12.5 mg/kg/injection, schedule: Q01DX005 (ip), vehicle: other): 90 % of control
T/C (endpoint: mean survival time, dose: 25.0 mg/kg/injection, schedule: Q01DX005 (ip), vehicle: other): 90 % of control

COc1ccc(C(O)c2nnc(C(O)c3ccc(OC)cc3)nn2)cc1 (centres undefined)
T/C [1]: 86 % of control
T/C [2]: 89 % of control
T/C [3]: 92 % of control

COc1ccc2c(O)c3[n+](cc2c1OC)CCc1cc2c(cc1-3)OCO2
T/C (endpoint: mean survival time, dose: 75.0 mg/kg/injection, schedule: Q01DX001 (ip), vehicle: other): 100 % of control
T/C (endpoint: mean survival time, dose: 150.0 mg/kg/injection, schedule: Q01DX001 (ip), vehicle: other): 87 % of control
T/C (endpoint: mean survival time, dose: 300.0 mg/kg/injection, schedule: Q01DX001 (ip), vehicle: other): 100 % of control

NC(=O)C#CC(N)=O
T/C (endpoint: mean survival time, dose: 0.37 mg/kg/injection, schedule: Q01DX009 (ip), vehicle: saline): 101 % of control
T/C (endpoint: mean survival time, dose: 0.75 mg/kg/injection, schedule: Q01DX009 (ip), vehicle: saline): 103 % of control
T/C (endpoint: mean survival time, dose: 1.5 mg/kg/injection, schedule: Q01DX009 (ip), vehicle: saline): 109 % of control
T/C (endpoint: mean survival time, dose: 3.0 mg/kg/injection, schedule: Q01DX009 (ip), vehicle: saline): 122 % of control
T/C [5]: 95 % of control
T/C [1]: 108 % of control
T/C [6]: 98 % of control
T/C [2]: 92 % of control
T/C [7]: 108 % of control
T/C [3]: 89 % of control

[Cl][Pt+2][Cl].[NH-]c1cc(Cl)c(Cl)cc1[NH-]
T/C (endpoint: mean survival time, dose: 2.5 mg/kg/injection, schedule: Q01DX009 (ip), vehicle: saline with Tween-80): 107 % of control
T/C (endpoint: mean survival time, dose: 5.0 mg/kg/injection, schedule: Q01DX009 (ip), vehicle: saline with Tween-80): 105 % of control
T/C (endpoint: mean survival time, dose: 10.0 mg/kg/injection, schedule: Q01DX009 (ip), vehicle: saline with Tween-80): 111 % of control
T/C (endpoint: mean survival time, dose: 20.0 mg/kg/injection, schedule: Q01DX009 (ip), vehicle: saline with Tween-80): 106 % of control and 112 % of control
T/C (endpoint: mean survival time, dose: 40.0 mg/kg/injection, schedule: Q01DX009 (ip), vehicle: saline with Tween-80): 105 % of control and 112 % of control
T/C (endpoint: mean survival time, dose: 80.0 mg/kg/injection, schedule: Q01DX009 (ip), vehicle: saline with Tween-80): 110 % of control
T/C (endpoint: mean survival time, dose: 160.0 mg/kg/injection, schedule: Q01DX009 (ip), vehicle: saline with Tween-80): 104 % of control
T/C (endpoint: mean survival time, dose: 320.0 mg/kg/injection, schedule: Q01DX009 (ip), vehicle: saline with Tween-80): 107 % of control
